Test results taken from US8889887B2, “Pentamethine cyanine fluorescent dyes, preparation methods and uses thereof” (Dalian University of Technology, priority 2011, dated 2014).
Values joined by “and” are separate entries in the source; they are usually repeats but may differ in a detail not shown here. Identical values can stand only once. Counter-ions that a name gives are not always drawn.

Assays:
Assay type in all cases: physicochemical
[1] = UV absorption and fluorescence emission spectra in different solvents; conditions: for λabs1 maximum absorption wavelength / λabs2 maximum absorption wavelength / λem1 maximum emission wavelength / λem2 maximum emission wavelength: 1 μM; for Φ1 fluorescence quantum yield / Φ2 fluorescence quantum yield / Φ fluorescence quantum yield (single peak): reference Rhodamine B in ethanol
Method: Firstly, stock solutions of 4 and 7 in DMSO were prepared respectively. Then sample solutions of 1 μM were prepared by diluting the mother liquors with corresponding chromatography grade solvent. UV absorption and fluorescence emission spectra of the sample solutions in different solvents were measured at room temperature, the results were shown in FIGS. 1A and 1B, respectively.

[2] = Viscosity experiments: absorption and emission spectra in glycerol-ethanol mixtures; conditions: glycerol-ethanol mixtures
Method: (§1) Firstly, DMSO solutions of 4 and 7 having a concentration of 1.0×10^−3 M were prepared, respectively. The stock solution of […] was added into 10 mL glycerol-ethanol mixture, and ultrasonicated to remove bubbles. The solution stayed for 1 hour, and then absorption and emission spectra therefore were measured by using UV-visible spectrophotometer and fluorescence spectrophotometer, and fluorescence lifetime of solution with different viscosity was detected as well. UV-visible spectrophotometer, model: Hp8453; fluorescence spectrophotometer model: FP-6500; Fluorescence lifetime equipment: Horiba Jobin Yvon Fluoromax-4-p.
(§2) Glycerol-ethanol mixture was a mixture of glycerol and ethanol, Vglycerol: Vethanol were 1:9, 2:8, 3:7, 4:6, 5:5, 6:4, 7:3, 8:2 and 9:1.

[3] = Fluorescence lifetime in solutions with different viscosity
Method: as §1, §2

SMILES: CCN1/C(=C/C=C(C=O)/C=C/C2=[N+](CC)c3ccccc3C2(C)C)C(C)(C)c2ccccc21 [compound 4, 1,5-di(1-N-ethyl-3,3-dimethyl-2,3-H-lindoline)-3-formyl-1,3,5-pentatriene chloride quaternary ammonium salt cyanine dye]
- Δλ1 Stokes Shift (λem1 − λabs1) ([1]; DMSO): 51 nm
- Δλ2 Stokes Shift (λem2 − λabs2) ([1]; DMSO): 17 nm
- Δλ3 Stokes Shift (λem2 − λabs1) ([1]; DMSO): 230 nm
- ε1 molar extinction coefficient ([1]; DMSO): 15000 L/cm/mol
- ε2 molar extinction coefficient ([1]; DMSO): 108500 L/cm/mol
- λabs1 maximum absorption wavelength ([1]; DMSO): 400 nm
- λabs2 maximum absorption wavelength ([1]; DMSO): 613 nm
- λem1 maximum emission wavelength ([1]; DMSO): 451 nm
- λem2 maximum emission wavelength ([1]; DMSO): 630 nm
- Φ1 fluorescence quantum yield ([1]; DMSO): 0.0158
- Φ2 fluorescence quantum yield ([1]; DMSO): 0.0224
- Δλ1 Stokes Shift (λem1 − λabs1) ([1]; acetonitrile): 54 nm
- Δλ2 Stokes Shift (λem2 − λabs2) ([1]; acetonitrile): 19 nm
- Δλ3 Stokes Shift (λem2 − λabs1) ([1]; acetonitrile): 229 nm
- ε1 molar extinction coefficient ([1]; acetonitrile): 11200 L/cm/mol
- ε2 molar extinction coefficient ([1]; acetonitrile): 93500 L/cm/mol
- λabs1 maximum absorption wavelength ([1]; acetonitrile): 397 nm
- λabs2 maximum absorption wavelength ([1]; acetonitrile): 607 nm
- λem1 maximum emission wavelength ([1]; acetonitrile): 451 nm
- λem2 maximum emission wavelength ([1]; acetonitrile): 626 nm
- Φ1 fluorescence quantum yield ([1]; acetonitrile): 0.0062
- Φ2 fluorescence quantum yield ([1]; acetonitrile): 0.0071
- Δλ1 Stokes Shift (λem1 − λabs1) ([1]; dichloromethane): 55 nm
- Δλ2 Stokes Shift (λem2 − λabs2) ([1]; dichloromethane): 29 nm
- Δλ3 Stokes Shift (λem2 − λabs1) ([1]; dichloromethane): 255 nm
- ε1 molar extinction coefficient ([1]; dichloromethane): 16000 L/cm/mol
- ε2 molar extinction coefficient ([1]; dichloromethane): 89700 L/cm/mol
- λabs1 maximum absorption wavelength ([1]; dichloromethane): 399 nm
- λabs2 maximum absorption wavelength ([1]; dichloromethane): 625 nm
- λem1 maximum emission wavelength ([1]; dichloromethane): 454 nm
- λem2 maximum emission wavelength ([1]; dichloromethane): 654 nm
- Φ1 fluorescence quantum yield ([1]; dichloromethane): 0.0060
- Φ2 fluorescence quantum yield ([1]; dichloromethane): 0.0231
- Δλ1 Stokes Shift (λem1 − λabs1) ([1]; ethanol): 52 nm
- Δλ2 Stokes Shift (λem2 − λabs2) ([1]; ethanol): 40 nm
- Δλ3 Stokes Shift (λem2 − λabs1), pseudo-Stokes Shift ([1]; ethanol): 254 nm
- ε1 molar extinction coefficient ([1]; ethanol): 13800 L/cm/mol
- ε2 molar extinction coefficient ([1]; ethanol): 97500 L/cm/mol
- λabs1 maximum absorption wavelength ([1]; ethanol): 399 nm
- λabs2 maximum absorption wavelength ([1]; ethanol): 613 nm
- λem1 maximum emission wavelength ([1]; ethanol): 451 nm
- λem2 maximum emission wavelength ([1]; ethanol): 653 nm
- Φ1 fluorescence quantum yield ([1]; ethanol): 0.0050
- Φ2 fluorescence quantum yield ([1]; ethanol): 0.0108
- sensitivity to solvent polarity ([1]; low-viscosity solvents of different polarity): insensitive to solvent polarity
- Δλ1 Stokes Shift (λem1 − λabs1) ([1]; methanol): 51 nm
- Δλ2 Stokes Shift (λem2 − λabs2) ([1]; methanol): 42 nm
- Δλ3 Stokes Shift (λem2 − λabs1) ([1]; methanol): 250 nm
- ε1 molar extinction coefficient ([1]; methanol): 14500 L/cm/mol
- ε2 molar extinction coefficient ([1]; methanol): 99300 L/cm/mol
- λabs1 maximum absorption wavelength ([1]; methanol): 400 nm
- λabs2 maximum absorption wavelength ([1]; methanol): 608 nm
- λem1 maximum emission wavelength ([1]; methanol): 451 nm
- λem2 maximum emission wavelength ([1]; methanol): 650 nm
- Φ1 fluorescence quantum yield ([1]; methanol): 0.0050
- Φ2 fluorescence quantum yield ([1]; methanol): 0.0079
- absorption peak, longer wavelength ([1]; solvent not stated): 610 nm
- absorption peak, shorter wavelength ([1]; solvent not stated): 400 nm
- emission peak, longer wavelength ([1]; solvent not stated): 650 nm
- emission peak, shorter wavelength ([1]; solvent not stated): 456 nm and 460 nm
- Δλ1 Stokes Shift (λem1 − λabs1) ([1]; water): 47 nm
- Δλ2 Stokes Shift (λem2 − λabs2) ([1]; water): 43 nm
- Δλ3 Stokes Shift (λem2 − λabs1) ([1]; water): 230 nm
- ε1 molar extinction coefficient ([1]; water): 16800 L/cm/mol
- ε2 molar extinction coefficient ([1]; water): 62100 L/cm/mol
- λabs1 maximum absorption wavelength ([1]; water): 413 nm
- λabs2 maximum absorption wavelength ([1]; water): 600 nm
- λem1 maximum emission wavelength ([1]; water): 460 nm
- λem2 maximum emission wavelength ([1]; water): 643 nm
- Φ1 fluorescence quantum yield ([1]; water): 0.0023
- Φ2 fluorescence quantum yield ([1]; water): 0.0032
- sensitivity of fluorescence intensity to solvent viscosity [2]: quite sensitive to solvent viscosity
- fluorescence lifetime ([3]; 99% glycerol solution): 1450 ps
- fluorescence lifetime ([3]; pure ethanol): lower than 50 ps

SMILES: CCN1/C(=C/C=C/C=C/C2=[N+](CC)c3ccccc3C2(C)C)C(C)(C)c2ccccc21 [ethyl-Cy5, reference compound]
- Δλ Stokes Shift (single peak) ([1]; DMSO): 13 nm
- ε molar extinction coefficient (single peak) ([1]; DMSO): 272000 L/cm/mol
- λabs maximum absorption wavelength (single peak) ([1]; DMSO): 655 nm
- λem maximum emission wavelength (single peak) ([1]; DMSO): 668 nm
- Φ fluorescence quantum yield (single peak) ([1]; DMSO): 0.33
- Δλ Stokes Shift (single peak) ([1]; THF): 9 nm
- ε molar extinction coefficient (single peak) ([1]; THF): 227000 L/cm/mol
- λabs maximum absorption wavelength (single peak) ([1]; THF): 653 nm
- λem maximum emission wavelength (single peak) ([1]; THF): 662 nm
- Φ fluorescence quantum yield (single peak) ([1]; THF): 0.37
- Δλ Stokes Shift (single peak) ([1]; dichloromethane): 6 nm
- ε molar extinction coefficient (single peak) ([1]; dichloromethane): 306000 L/cm/mol
- λabs maximum absorption wavelength (single peak) ([1]; dichloromethane): 661 nm
- λem maximum emission wavelength (single peak) ([1]; dichloromethane): 671 nm
- Φ fluorescence quantum yield (single peak) ([1]; dichloromethane): 0.29
- Δλ Stokes Shift (single peak) ([1]; ethanol): 11 nm
- ε molar extinction coefficient (single peak) ([1]; ethanol): 302000 L/cm/mol
- λabs maximum absorption wavelength (single peak) ([1]; ethanol): 652 nm
- λem maximum emission wavelength (single peak) ([1]; ethanol): 663 nm
- Φ fluorescence quantum yield (single peak) ([1]; ethanol): 0.27
- Δλ Stokes Shift (single peak) ([1]; methanol): 10 nm
- ε molar extinction coefficient (single peak) ([1]; methanol): 259000 L/cm/mol
- λabs maximum absorption wavelength (single peak) ([1]; methanol): 649 nm
- λem maximum emission wavelength (single peak) ([1]; methanol): 659 nm
- Φ fluorescence quantum yield (single peak) ([1]; methanol): 0.22
- Δλ Stokes Shift (single peak) ([1]; water): 8 nm
- ε molar extinction coefficient (single peak) ([1]; water): 227000 L/cm/mol
- λabs maximum absorption wavelength (single peak) ([1]; water): 648 nm
- λem maximum emission wavelength (single peak) ([1]; water): 656 nm
- Φ fluorescence quantum yield (single peak) ([1]; water): 0.13
